Experiments:
[1] = target: Fibroblast growth factor receptor 2 (Homo sapiens) (UniProt P21802); assay: Residual activity of FGFR2 at 10 uM by microplate scintillation counting
[2] = tested on: Tyrosine-protein kinase ABL1 (Homo sapiens), P00519 [T315I]; assay: Residual activity of ABL1 T315I mutant at 1 uM by microplate scintillation counting
[3] = target: CDC42BPA protein (Homo sapiens) (UniProt B9EGA7); assay: Residual activity of CDC42BPA at 0.1 uM by microplate scintillation counting
[4] = target: Serine/threonine-protein kinase WNK2 (Homo sapiens) (UniProt Q9Y3S1); assay: Residual activity of WNK2 at 0.1 uM by microplate scintillation counting
[5] = target: Cyclin-dependent kinase 2/cyclin A (Homo sapiens) (UniProt P24941+P20248+P78396); assay: Residual activity of CDK2/Cyclin A at 0.1 uM by microplate scintillation counting; type: protein-complex assay
[6] = target: T1, Serine/threonine-protein kinase Chk1 (Homo sapiens) (UniProt O14757); assay: Residual activity of CHK1 at 10 uM by microplate scintillation counting
T1 sequence (whole entry): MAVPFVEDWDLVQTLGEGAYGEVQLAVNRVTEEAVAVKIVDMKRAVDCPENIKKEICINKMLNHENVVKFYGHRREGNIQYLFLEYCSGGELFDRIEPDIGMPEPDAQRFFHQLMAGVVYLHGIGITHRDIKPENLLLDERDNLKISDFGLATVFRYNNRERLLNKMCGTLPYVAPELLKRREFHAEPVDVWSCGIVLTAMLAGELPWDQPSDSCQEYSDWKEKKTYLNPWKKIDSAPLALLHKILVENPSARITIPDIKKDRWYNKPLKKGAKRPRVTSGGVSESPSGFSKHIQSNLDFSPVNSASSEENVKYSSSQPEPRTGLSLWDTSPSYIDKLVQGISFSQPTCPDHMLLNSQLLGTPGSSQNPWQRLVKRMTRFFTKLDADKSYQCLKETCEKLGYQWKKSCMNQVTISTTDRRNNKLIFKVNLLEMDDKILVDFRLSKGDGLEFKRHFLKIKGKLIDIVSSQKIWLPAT

[7] = target: Death-associated protein kinase 2 (Homo sapiens) (UniProt Q9UIK4); assay: Residual activity of DAPK2 at 10 uM by microplate scintillation counting
[8] = target: Ribosomal protein S6 kinase beta-2 (Homo sapiens) (UniProt Q9UBS0); assay: Residual activity of S6Kbeta at 0.1 uM by microplate scintillation counting
[9] = target: Mitogen-activated protein kinase 8 (Homo sapiens) (UniProt P45983); assay: Residual activity of JNK1 at 1 uM by microplate scintillation counting
[10] = target: Serine/threonine-protein kinase 16 (Homo sapiens) (UniProt O75716); assay: Residual activity of TSF1 at 0.1 uM by microplate scintillation counting
[11] = target: Wee1-like protein kinase (Homo sapiens) (UniProt P30291); assay: Residual activity of WEE1 at 10 uM by microplate scintillation counting
[12] = target: Insulin receptor (Homo sapiens) (UniProt P06213); assay: Residual activity of INSR at 1 uM by microplate scintillation counting
[13] = target: SRSF protein kinase 1 (Homo sapiens) (UniProt Q96SB4); assay: Residual activity of SRPK1 at 0.1 uM by microplate scintillation counting
[14] = target: Insulin-like growth factor 1 receptor (Homo sapiens) (UniProt P08069); assay: Residual activity of IGF1R at 0.1 uM by microplate scintillation counting
[15] = tested on: Epidermal growth factor receptor (Homo sapiens), P00533 [L858R]; assay: Residual activity of EGFR L858R mutant at 1 uM by microplate scintillation counting
[16] = tested on: Mast/stem cell growth factor receptor Kit (Homo sapiens), P10721 [T670I]; assay: Residual activity of KIT T670I mutant at 1 uM by microplate scintillation counting
[17] = target: Ribosomal protein S6 kinase alpha-1 (Homo sapiens) (UniProt Q15418); assay: Residual activity of RPS6KA1 at 10 uM by microplate scintillation counting
[18] = target: Mitogen-activated protein kinase 14 (Homo sapiens) (UniProt Q16539); assay: Residual activity of p38alpha at 1 uM by microplate scintillation counting
[19] = target: CDK3/cyclin E (Homo sapiens) (UniProt P24864+O96020+Q00526); assay: Residual activity of CDK3/Cyclin E at 1 uM by microplate scintillation counting; type: protein-complex assay
[20] = tested on: Fibroblast growth factor receptor 1 (Homo sapiens), P11362 [V561M]; assay: Residual activity of FGFR1 V561M mutant at 10 uM by microplate scintillation counting
[21] = tested on: Epidermal growth factor receptor (Homo sapiens), P00533 [T790M]; assay: Residual activity of EGFR T790M mutant at 10 uM by microplate scintillation counting
[22] = target: Mitogen-activated protein kinase 11 (Homo sapiens) (UniProt Q15759); assay: Residual activity of p38beta at 1 uM by microplate scintillation counting
[23] = target: T2, Megakaryocyte-associated tyrosine-protein kinase (Homo sapiens) (UniProt P42679); assay: Residual activity of MATK at 1 uM by microplate scintillation counting
T2 sequence (whole entry): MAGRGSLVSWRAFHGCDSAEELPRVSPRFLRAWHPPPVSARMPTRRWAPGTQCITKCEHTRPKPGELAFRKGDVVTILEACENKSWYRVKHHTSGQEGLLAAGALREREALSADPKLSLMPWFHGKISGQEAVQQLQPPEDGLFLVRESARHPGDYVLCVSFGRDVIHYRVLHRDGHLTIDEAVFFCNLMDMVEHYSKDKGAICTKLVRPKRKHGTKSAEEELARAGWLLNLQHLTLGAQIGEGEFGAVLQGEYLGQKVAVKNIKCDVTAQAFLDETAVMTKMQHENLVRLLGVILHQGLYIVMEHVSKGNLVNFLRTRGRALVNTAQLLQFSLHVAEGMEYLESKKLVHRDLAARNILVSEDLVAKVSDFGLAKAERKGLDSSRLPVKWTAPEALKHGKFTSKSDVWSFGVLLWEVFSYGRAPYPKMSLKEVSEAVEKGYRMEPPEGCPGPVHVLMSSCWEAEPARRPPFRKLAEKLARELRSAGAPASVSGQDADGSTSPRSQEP

[24] = target: Serine/threonine-protein kinase 24 (Homo sapiens) (UniProt Q9Y6E0); assay: Residual activity of MST3 at 10 uM by microplate scintillation counting
[25] = target: Serine/threonine-protein kinase N1 (Homo sapiens) (UniProt Q16512); assay: Residual activity of PRK1 at 10 uM by microplate scintillation counting
[26] = target: CDC42BPA protein (Homo sapiens) (UniProt B9EGA7); assay: Residual activity of CDC42BPA at 1 uM by microplate scintillation counting
[27] = target: Ribosomal protein S6 kinase alpha-3 (Homo sapiens) (UniProt P51812); assay: Residual activity of RPS6KA3 at 10 uM by microplate scintillation counting
[28] = target: Mitogen-activated protein kinase 10 (Homo sapiens) (UniProt P53779); assay: Residual activity of JNK3 at 1 uM by microplate scintillation counting
Sequence of Mitogen-activated protein kinase 10 (Homo sapiens) (P53779 whole entry): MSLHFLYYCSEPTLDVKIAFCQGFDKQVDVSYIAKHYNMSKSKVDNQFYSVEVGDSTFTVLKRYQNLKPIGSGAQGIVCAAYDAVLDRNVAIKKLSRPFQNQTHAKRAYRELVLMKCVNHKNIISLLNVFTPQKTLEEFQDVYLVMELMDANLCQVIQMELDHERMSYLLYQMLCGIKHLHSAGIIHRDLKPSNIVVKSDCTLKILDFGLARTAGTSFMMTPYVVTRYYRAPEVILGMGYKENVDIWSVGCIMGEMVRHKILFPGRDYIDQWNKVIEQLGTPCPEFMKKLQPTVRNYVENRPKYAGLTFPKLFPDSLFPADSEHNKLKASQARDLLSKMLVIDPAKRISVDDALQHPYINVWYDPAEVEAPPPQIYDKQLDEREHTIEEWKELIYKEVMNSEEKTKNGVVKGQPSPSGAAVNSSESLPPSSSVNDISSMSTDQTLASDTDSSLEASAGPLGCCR

Sequence of Serine/threonine-protein kinase N1 (Homo sapiens) (Q16512 2-942 limits assumed): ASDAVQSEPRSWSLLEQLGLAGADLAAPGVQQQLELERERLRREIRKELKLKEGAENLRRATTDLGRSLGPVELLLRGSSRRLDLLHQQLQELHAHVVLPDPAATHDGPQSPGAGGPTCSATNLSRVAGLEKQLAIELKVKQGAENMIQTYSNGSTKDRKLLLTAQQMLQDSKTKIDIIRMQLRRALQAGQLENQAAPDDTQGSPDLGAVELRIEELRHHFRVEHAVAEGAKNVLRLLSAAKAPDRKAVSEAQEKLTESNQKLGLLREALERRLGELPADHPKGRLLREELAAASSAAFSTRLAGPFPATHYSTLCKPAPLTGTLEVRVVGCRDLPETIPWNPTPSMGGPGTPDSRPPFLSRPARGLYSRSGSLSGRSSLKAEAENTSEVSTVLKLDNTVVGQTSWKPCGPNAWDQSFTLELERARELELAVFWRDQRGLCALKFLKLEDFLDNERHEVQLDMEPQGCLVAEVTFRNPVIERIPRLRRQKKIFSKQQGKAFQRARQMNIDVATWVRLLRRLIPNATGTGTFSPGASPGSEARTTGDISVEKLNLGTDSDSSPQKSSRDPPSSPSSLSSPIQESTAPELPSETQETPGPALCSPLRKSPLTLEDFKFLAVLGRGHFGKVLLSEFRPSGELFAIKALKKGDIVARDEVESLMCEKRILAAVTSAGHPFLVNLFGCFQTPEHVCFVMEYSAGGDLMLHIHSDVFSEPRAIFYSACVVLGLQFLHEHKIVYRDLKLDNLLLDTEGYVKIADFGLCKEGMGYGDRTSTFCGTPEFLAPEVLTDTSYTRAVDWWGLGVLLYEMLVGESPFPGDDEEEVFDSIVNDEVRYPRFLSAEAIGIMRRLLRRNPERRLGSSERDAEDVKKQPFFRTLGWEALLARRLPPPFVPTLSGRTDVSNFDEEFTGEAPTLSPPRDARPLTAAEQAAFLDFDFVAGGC
Sequence of Serine/threonine-protein kinase 24 (Homo sapiens) (Q9Y6E0 whole entry, looked up): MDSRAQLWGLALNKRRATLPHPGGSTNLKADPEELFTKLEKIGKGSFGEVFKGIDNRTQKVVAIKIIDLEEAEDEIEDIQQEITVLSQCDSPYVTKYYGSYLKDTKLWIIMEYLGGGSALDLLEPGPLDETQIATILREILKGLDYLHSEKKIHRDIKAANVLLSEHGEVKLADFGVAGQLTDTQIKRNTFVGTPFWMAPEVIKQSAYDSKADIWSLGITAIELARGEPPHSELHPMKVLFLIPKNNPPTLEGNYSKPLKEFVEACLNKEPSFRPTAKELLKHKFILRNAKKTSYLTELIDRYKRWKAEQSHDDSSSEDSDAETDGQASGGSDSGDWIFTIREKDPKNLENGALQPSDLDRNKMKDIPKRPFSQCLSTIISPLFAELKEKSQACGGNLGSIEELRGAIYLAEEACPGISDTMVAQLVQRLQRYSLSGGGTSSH
Sequence of Insulin-like growth factor 1 receptor (Homo sapiens) (P08069 31-736 limits assumed): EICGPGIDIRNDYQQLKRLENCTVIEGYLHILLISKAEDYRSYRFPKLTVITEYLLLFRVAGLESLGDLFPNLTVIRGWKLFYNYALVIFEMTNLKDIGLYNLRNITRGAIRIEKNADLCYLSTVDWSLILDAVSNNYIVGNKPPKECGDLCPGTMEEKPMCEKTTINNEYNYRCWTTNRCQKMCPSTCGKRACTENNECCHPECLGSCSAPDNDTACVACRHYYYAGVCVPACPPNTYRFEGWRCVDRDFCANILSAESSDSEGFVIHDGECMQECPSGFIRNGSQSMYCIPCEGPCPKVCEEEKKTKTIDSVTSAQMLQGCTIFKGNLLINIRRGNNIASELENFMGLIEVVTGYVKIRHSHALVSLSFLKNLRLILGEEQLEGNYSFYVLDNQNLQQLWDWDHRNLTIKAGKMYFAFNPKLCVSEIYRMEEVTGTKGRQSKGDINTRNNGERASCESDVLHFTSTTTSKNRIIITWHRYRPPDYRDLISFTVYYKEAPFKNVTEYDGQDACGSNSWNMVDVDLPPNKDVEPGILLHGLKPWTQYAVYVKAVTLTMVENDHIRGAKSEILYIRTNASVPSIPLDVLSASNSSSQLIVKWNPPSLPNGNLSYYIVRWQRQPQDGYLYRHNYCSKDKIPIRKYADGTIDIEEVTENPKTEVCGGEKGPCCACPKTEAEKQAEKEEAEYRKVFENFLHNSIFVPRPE
Sequence of Insulin-like growth factor 1 receptor (Homo sapiens) (P08069 741-1367 limits assumed): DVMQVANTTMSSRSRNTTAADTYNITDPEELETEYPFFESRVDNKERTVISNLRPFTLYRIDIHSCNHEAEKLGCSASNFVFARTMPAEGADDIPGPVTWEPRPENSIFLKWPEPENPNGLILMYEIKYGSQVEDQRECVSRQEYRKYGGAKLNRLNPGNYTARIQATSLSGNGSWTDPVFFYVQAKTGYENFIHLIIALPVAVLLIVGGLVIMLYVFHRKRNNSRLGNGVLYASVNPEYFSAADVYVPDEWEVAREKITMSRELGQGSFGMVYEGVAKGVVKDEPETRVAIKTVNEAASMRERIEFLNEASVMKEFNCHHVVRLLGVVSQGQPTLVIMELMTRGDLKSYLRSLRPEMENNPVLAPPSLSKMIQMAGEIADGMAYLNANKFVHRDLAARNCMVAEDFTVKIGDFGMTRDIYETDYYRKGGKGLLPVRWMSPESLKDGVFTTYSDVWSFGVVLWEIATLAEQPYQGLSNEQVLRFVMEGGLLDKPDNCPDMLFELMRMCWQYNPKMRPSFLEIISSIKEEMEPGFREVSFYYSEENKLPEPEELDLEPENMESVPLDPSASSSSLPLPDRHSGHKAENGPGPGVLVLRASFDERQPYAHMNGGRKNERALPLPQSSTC
Sequence of SRSF protein kinase 1 (Homo sapiens) (Q96SB4 whole entry): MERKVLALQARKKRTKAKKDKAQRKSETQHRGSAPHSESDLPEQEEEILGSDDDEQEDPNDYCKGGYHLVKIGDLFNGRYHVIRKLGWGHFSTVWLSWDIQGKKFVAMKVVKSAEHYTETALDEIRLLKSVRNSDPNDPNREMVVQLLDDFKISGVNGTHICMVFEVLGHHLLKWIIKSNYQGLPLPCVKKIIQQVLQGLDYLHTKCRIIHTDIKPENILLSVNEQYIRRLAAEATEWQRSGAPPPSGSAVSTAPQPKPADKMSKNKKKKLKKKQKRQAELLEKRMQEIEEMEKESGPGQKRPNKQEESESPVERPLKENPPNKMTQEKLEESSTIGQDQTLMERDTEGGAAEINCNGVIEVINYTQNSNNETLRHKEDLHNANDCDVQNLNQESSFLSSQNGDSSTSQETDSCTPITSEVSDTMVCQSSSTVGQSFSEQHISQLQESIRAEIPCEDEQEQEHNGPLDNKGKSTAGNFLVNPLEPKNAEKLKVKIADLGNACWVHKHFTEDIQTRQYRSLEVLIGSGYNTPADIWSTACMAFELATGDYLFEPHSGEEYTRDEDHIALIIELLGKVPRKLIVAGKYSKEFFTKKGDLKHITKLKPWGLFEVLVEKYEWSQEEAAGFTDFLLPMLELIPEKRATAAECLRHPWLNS
Sequence of Serine/threonine-protein kinase 16 (Homo sapiens) (O75716 whole entry): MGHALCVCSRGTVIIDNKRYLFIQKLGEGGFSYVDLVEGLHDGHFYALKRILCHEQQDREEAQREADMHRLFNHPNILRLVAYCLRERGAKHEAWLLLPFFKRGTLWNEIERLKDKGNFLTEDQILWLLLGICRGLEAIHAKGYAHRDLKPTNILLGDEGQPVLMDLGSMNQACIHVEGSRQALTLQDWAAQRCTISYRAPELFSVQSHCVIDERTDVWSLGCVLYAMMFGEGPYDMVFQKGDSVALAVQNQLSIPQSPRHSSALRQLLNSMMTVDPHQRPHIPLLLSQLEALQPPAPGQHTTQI
Sequence of Mitogen-activated protein kinase 8 (Homo sapiens) (P45983 whole entry): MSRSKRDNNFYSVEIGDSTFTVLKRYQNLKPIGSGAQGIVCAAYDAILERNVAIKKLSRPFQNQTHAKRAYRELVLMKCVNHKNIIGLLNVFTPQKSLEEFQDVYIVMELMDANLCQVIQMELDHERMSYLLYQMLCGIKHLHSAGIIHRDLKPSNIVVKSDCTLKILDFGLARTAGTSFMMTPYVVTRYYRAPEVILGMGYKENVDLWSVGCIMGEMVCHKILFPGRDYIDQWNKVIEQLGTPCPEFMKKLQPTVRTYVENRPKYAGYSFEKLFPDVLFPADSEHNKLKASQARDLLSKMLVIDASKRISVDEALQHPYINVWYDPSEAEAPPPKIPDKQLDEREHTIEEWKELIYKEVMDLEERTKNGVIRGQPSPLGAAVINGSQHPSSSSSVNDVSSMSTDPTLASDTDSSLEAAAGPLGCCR
Sequence of Mitogen-activated protein kinase 11 (Homo sapiens) (Q15759 whole entry): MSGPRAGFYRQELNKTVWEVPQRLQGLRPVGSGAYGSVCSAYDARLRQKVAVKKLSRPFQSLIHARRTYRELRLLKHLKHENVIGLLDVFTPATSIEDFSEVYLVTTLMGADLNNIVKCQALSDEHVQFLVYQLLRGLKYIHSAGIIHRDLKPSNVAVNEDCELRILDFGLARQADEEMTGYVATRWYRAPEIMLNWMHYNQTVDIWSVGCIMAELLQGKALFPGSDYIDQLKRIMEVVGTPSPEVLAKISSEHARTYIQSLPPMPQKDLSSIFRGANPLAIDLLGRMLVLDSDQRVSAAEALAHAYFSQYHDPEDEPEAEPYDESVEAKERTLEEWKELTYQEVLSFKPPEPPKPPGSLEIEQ

COc1cc2c(Oc3ccc(-c4nc5ccccc5s4)cc3)ncnc2cc1OCCCN1CCCC1
residual activity [1]: 113% | residual activity [2]: 95% | residual activity [3]: 104% | residual activity [4]: 81% | residual activity [5]: 96% | residual activity [6]: 101% | residual activity [7]: 20% | residual activity [8]: 47% | residual activity [9]: 142% | residual activity [10]: 93% | residual activity [11]: 46% | residual activity [12]: 95% | residual activity [13]: 103% | residual activity [14]: 114% | residual activity [15]: 72% | residual activity [16]: 73% | residual activity [17]: 124% | residual activity [18]: 143% | residual activity [19]: 89% | residual activity [20]: 47% | residual activity [21]: 96% | residual activity [22]: 125% | residual activity [23]: 235% | residual activity [24]: 165% | residual activity [25]: 68% | residual activity [26]: 117% | residual activity [27]: 58% | residual activity [28]: 97%

COc1cc2c(Oc3ccc(-c4nc5ccccc5s4)cc3F)ncnc2cc1OCCCN1CCN(C)CC1
residual activity [1]: 86% | residual activity [2]: 96% | residual activity [3]: 86% | residual activity [4]: 87% | residual activity [5]: 100% | residual activity [6]: 142% | residual activity [7]: 16% | residual activity [8]: 55% | residual activity [9]: 154% | residual activity [10]: 102% | residual activity [11]: 2% | residual activity [12]: 97% | residual activity [13]: 91% | residual activity [14]: 113% | residual activity [15]: 80% | residual activity [16]: 65% | residual activity [17]: 222% | residual activity [18]: 148% | residual activity [19]: 79% | residual activity [20]: 26% | residual activity [21]: 41% | residual activity [22]: 129% | residual activity [23]: 162% | residual activity [24]: 229% | residual activity [25]: 91% | residual activity [26]: 89% | residual activity [27]: 36% | residual activity [28]: 101%

COc1cc2c(Oc3ccc(-c4nc5ccccc5s4)cc3)ncnc2cc1OCCCN1CCN(C)CC1
residual activity [1]: 136% | residual activity [2]: 103% | residual activity [3]: 112% | residual activity [4]: 74% | residual activity [5]: 94% | residual activity [6]: 131% | residual activity [7]: 15% | residual activity [8]: 42% | residual activity [9]: 142% | residual activity [10]: 100% | residual activity [11]: 2% | residual activity [12]: 98% | residual activity [13]: 96% | residual activity [14]: 99% | residual activity [15]: 63% | residual activity [16]: 73% | residual activity [17]: 206% | residual activity [18]: 145% | residual activity [19]: 85% | residual activity [20]: 32% | residual activity [21]: 88% | residual activity [22]: 126% | residual activity [23]: 141% | residual activity [24]: 231% | residual activity [25]: 83% | residual activity [26]: 117% | residual activity [27]: 50% | residual activity [28]: 106%
